Source: patent publication US8436023B2, “Cyclohexyl-azetidinyl antagonists of CCR2” (Janssen Pharmaceutica N.V., priority 2010, dated 2013)
pIC50: −log10 of the molar value.

The molecules below were run against T1, CCR2 (Homo sapiens, UniProt P41597) (assay: MCP-1 Receptor Binding Assay in THP-1 Cells). Conditions: 0.5 nM 125I labeled MCP-1, 2 hours at 30° C., less polar isomer tested where stated, read-out: Inhibition of MCP-1 Binding IC50, CCR2 Binding.
T1 construct: host or cells: THP-1 human monocytic cells
T1 sequence (P41597 1-360 isoform P41597-2): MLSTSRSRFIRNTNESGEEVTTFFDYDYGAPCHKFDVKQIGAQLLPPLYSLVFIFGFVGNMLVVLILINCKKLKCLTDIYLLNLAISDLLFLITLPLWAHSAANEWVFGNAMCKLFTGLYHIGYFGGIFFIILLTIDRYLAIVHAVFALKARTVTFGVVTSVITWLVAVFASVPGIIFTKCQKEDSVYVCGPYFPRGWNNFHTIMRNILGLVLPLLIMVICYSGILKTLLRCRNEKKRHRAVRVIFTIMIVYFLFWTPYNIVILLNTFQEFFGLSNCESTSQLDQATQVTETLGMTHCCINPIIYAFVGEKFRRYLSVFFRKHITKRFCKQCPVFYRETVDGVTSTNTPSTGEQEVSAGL
Procedure: MCP-1 Receptor Binding Assay in THP-1 Cells
Human monocytic cell line THP-1 cells were obtained from American Type Culture Collection (Manassas, Va., USA). The THP-1 cells were grown in RPMI-1640 (RPMI: Roswell Park Memorial Institute Medium-cell culture growth media) supplemented with 10% fetal bovine serum in a humidified 5% CO2 atmosphere at 37° C. The cell density was maintained […].
THP-1 (cells were incubated with 0.5 nM ^125I labeled MCP-1 (Perkin-Elmer Life Sciences, Inc. Boston, Mass.) in the presence of varying concentrations of either unlabeled MCP-1 (R & D Systems, Minneapolis, Minn.) or test compound for 2 hours at 30° C. in a 96 well plate. Cells were then harvested onto a filter plate, dried, and 20 μL of Microscint 20 was added to each well. Plates were counted in a TopCount NXT, Microplate Scintillation & Luminescence Counter (Perkin-Elmer Life Sciences, Inc. Boston, Mass.). Blank values (buffer only) were subtracted from all values and drug treated values were compared to vehicle treated values. 1 μM cold MCP-1 was used for nonspecific binding.
Where an IC50 value was not obtained for a particular compound, the percent inhibition is provided at a test concentration of 25 μM.

**Q.** With `Cn1nc(NCC(=O)NC2CN(C3CCC(C#N)CC3)C2)c2cc(C(F)(F)F)ccc21` (stereo not shown) [Example 38, N-[1-(4-Cyano-cyclohexyl)-azetidin-3-yl]-2-(1-methyl-5-trifluoromethyl-1H-indazol-3-ylamino)-acetamide] as the molecule, how does the pIC50 read?
**A.** 6.82

**Q.** With `Cn1nc(NCC(=O)NC2CN(C3CCC(NC(=O)OC(C)(C)C)CC3)C2)c2cc(C(F)(F)F)ccc21` (stereo not shown) [Example 31, (4-{3-[2-(1-Methyl-5-trifluoromethyl-1H-indazol-3-ylamino)-acetylamino]-azetidin-1-yl}-cyclohexyl)-carbamic acid tert-butyl ester] as the molecule, how does the pIC50 read?
**A.** 7.12

**Q.** With `CC(C)(C)NC(=O)n1nc(NCC(=O)NC2CN(C3CCC(O[Si](C)(C)C(C)(C)C)CC3)C2)c2cc(C(F)(F)F)ccc21` (stereo not shown) [Example 84, 3-[({1-[4-(tert-Butyl-dimethyl-silanyloxy)-cyclohexyl]-azetidin-3-ylcarbamoyl}-methyl)-amino]-5-trifluoromethyl-indazole-1-carboxylic acid tert-butylamide] as the molecule, how does the pIC50 read?
**A.** 6.06

**Q.** How did the pIC50 turn out when `Cc1ccc(C2(O)CCC(N3CC(NC(=O)CNc4nn(C)c5ccc(C(O)C(F)(F)F)cc45)C3)CC2)cn1` (stereo not shown) [Example 63, N-{1-[4-Hydroxy-4-(6-methyl-pyridin-3-yl)-cyclohexyl]-azetidin-3-yl}-2-[1-methyl-5-(2,2,2-trifluoro-1-hydroxy-ethyl)-1H-indazol-3-ylamino]-acetamide] was run?
**A.** 5.47

**Q.** `Cn1nc(NCC(=O)NC2CN(C3CCC(C(N)=O)CC3)C2)c2cc(C(F)(F)F)ccc21` (stereo not shown) [Example 39, 4-{3-[2-(1-Methyl-5-trifluoromethyl-1H-indazol-3-ylamino)-acetylamino]-azetidin-1-yl}-cyclohexane carboxylic acid amide] was tested. Which pIC50 did it give?
**A.** 6.42

**Q.** With `CC(C)NC(=O)n1nc(NCC(=O)NC2CN(C3CCC(C4CCCCC4)CC3)C2)c2cc(C(F)(F)F)ccc21` (stereo not shown) [Example 93, 3-{[(1-Bicyclohexyl-4-yl-azetidin-3-ylcarbamoyl)-methyl]-amino}-5-trifluoromethyl-indazole-1-carboxylic acid isopropylamide] as the molecule, how does the pIC50 read?
**A.** 5.51

**Q.** How did the pIC50 turn out when `CCn1nc(NCC(=O)NC2CN(C3CCC(C(C)C)CC3)C2)c2cc(C(F)(F)F)ccc21` (stereo not shown) [Example 71, 2-(1-Ethyl-5-trifluoromethyl-1H-indazol-3-ylamino)-N-[1-(4-isopropyl-cyclohexyl)-azetidin-3-yl]-acetamide] was run?
**A.** 6.14

**Q.** How did the pIC50 turn out when `O=C(CNc1n[nH]c2ccc(C(F)(F)F)cc12)NC1CN(C2CCC(c3ccc4c(c3)OCO4)CC2)C1` (stereo not shown) [Example 45, N-[1-(4-Benzo[1,3]dioxol-5-yl-cyclohexyl)-azetidin-3-yl]-2-(5-trifluoromethyl-1H-indazol-3-ylamino)-acetamide] was run?
**A.** 8.18

**Q.** `Cn1ccnc1C1(O)CCC(N2CC(NC(=O)CNc3nn(C)c4ccc(C(F)(F)F)cc34)C2)CC1` (stereo not shown) [Example 27, N-{1-[4-Hydroxy-4-(1-methyl-1H-imidazol-2-yl)-cyclohexyl]-azetidin-3-yl}-2-(1-methyl-5-trifluoromethyl-1H-indazol-3-ylamino)-acetamide] was tested. Which pIC50 did it give?
**A.** 5.85

**Q.** With `CCOC(=O)C1CCC(N2CC(NC(=O)CNc3n[nH]c4ccc(C(F)(F)F)cc34)C2)CC1` (stereo not shown) [Example 50, 4-{3-[2-(5-Trifluoromethyl-1H-indazol-3-ylamino)-acetylamino]-azetidin-1-yl}-cyclohexane carboxylic acid ethyl ester] as the molecule, how does the pIC50 read?
**A.** 7.57

**Q.** With `COC(F)(c1ccc2c(c1)c(NCC(=O)NC1CN(C3CCC(O)(c4ccc(C)nc4)CC3)C1)nn2C)C(F)(F)F` (stereo not shown) [Example 103, N-{1-[4-Hydroxy-4-(6-methyl-pyridin-3-yl)-cyclohexyl]-azetidin-3-yl}-2-[1-methyl-5-(1,2,2,2-tetrafluoro-1-methoxy-ethyl)-1H-indazol-3-ylamino]-acetamide] as the molecule, how does the pIC50 read?
**A.** 7.66

**Q.** With `CCCC1CCC(N2CC(NC(=O)CNc3noc4ccc(C(F)(F)F)cc34)C2)CC1` (stereo not shown) [Example 14, N-[1-(4-Propyl-cyclohexyl)-azetidin-3-yl]-2-(5-trifluoromethyl-benzo[d]isoxazol-3-ylamino)-acetamide] as the molecule, how does the pIC50 read?
**A.** 6.44

**Q.** How did the pIC50 turn out when `CCOc1ccc(C2(O)CCC(N3CC(NC(=O)CNc4nn(C(=O)NC(C)(C)C)c5ccc(C(F)(F)F)cc45)C3)CC2)cn1` (stereo not shown) [Example 82, 3-[({1-[4-(6-Ethoxy-pyridin-3-yl)-4-hydroxy-cyclohexyl]-azetidin-3-ylcarbamoyl}-methyl)-amino]-5-trifluoromethyl-indazole-1-carboxylic acid tert-butylamide] was run?
**A.** 7.47

**Q.** `CC(C)(C)OC(=O)NC1CCC(N2CC(NC(=O)CNc3n[nH]c4ccc(C(F)(F)F)cc34)C2)CC1` (stereo not shown) [Example 51, (4-{3-[2-(5-Trifluoromethyl-1H-indazol-3-ylamino)-acetylamino]-azetidin-1-yl}-cyclohexyl)-carbamic acid tert-butyl ester] was tested. Which pIC50 did it give?
**A.** 7.06

**Q.** With `COc1ccc(C2CCC(N3CC(NC(=O)CNc4nn(S(C)(=O)=O)c5ccc(C(F)(F)F)cc45)C3)CC2)cn1` (stereo not shown) [Example 100, 2-(1-Methanesulfonyl-5-trifluoromethyl-1H-indazol-3-ylamino)-N-{1-[4-(6-methoxy-pyridin-3-yl)-cyclohexyl]-azetidin-3-yl}-acetamide] as the molecule, how does the pIC50 read?
**A.** 5.43

**Q.** With `Cn1nc(NCC(=O)NC2CN(C3CCC(O)(c4cncs4)CC3)C2)c2cc(C(F)(F)F)ccc21` (stereo not shown) [Example 21, N-[1-(4-Hydroxy-4-thiazol-5-yl-cyclohexyl)-azetidin-3-yl]-2-(1-methyl-5-trifluoromethyl-1H-indazol-3-ylamino)-acetamide] as the molecule, how does the pIC50 read?
**A.** 7.55

**Q.** `Cn1nc(NCC(=O)NC2CN(C3CCC(O)(c4nccs4)CC3)C2)c2cc(C(F)(F)F)ccc21` (stereo not shown) [Example 22, N-[1-(4-Hydroxy-4-thiazol-2-yl-cyclohexyl)-azetidin-3-yl]-2-(1-methyl-5-trifluoromethyl-1H-indazol-3-ylamino)-acetamide] was tested. Which pIC50 did it give?
**A.** 7.89

**Q.** `C=CCn1nc(NCC(=O)NC2CN(C3CCC(C(=O)OCC)CC3)C2)c2cc(C(F)(F)F)ccc21` (stereo not shown) [Example 94, 4-{3-[2-(1-Allyl-5-trifluoromethyl-1H-indazol-3-ylamino)-acetylamino]-azetidin-1-yl}-cyclohexanecarboxylic acid ethyl ester] was tested. Which pIC50 did it give?
**A.** 7.28

**Q.** `CC(C)(C)NC(=O)n1nc(NCC(=O)NC2CN(C3CCC(O)(c4nccs4)CC3)C2)c2cc(C(F)(F)F)ccc21` (stereo not shown) [Example 80, 3-({[1-(4-Hydroxy-4-thiazol-2-yl-cyclohexyl)-azetidin-3-ylcarbamoyl]-methyl}-amino)-5-trifluoromethyl-indazole-1-carboxylic acid tert-butylamide] was tested. Which pIC50 did it give?
**A.** 7.12

**Q.** How did the pIC50 turn out when `Cn1nc(NCC(=O)NC2CN(C3CCC(O)(c4cccnc4)CC3)C2)c2cc(C(F)(F)F)ccc21` (stereo not shown) [Example 19, N-[1-(4-Hydroxy-4-pyridin-3-yl-cyclohexyl)-azetidin-3-yl]-2-(1-methyl-5-trifluoromethyl-1H-indazol-3-ylamino)-acetamide] was run?
**A.** 7.25

**Q.** With `CC(C)NC(=O)n1nc(NCC(=O)NC2CN(C3CCC(c4ccccc4)CC3)C2)c2cc(C(F)(F)F)ccc21` (stereo not shown) [Example 90, 3-({[1-(4-Phenyl-cyclohexyl)-azetidin-3-ylcarbamoyl]-methyl}-amino)-5-trifluoromethyl-indazole-1-carboxylic acid isopropylamide] as the molecule, how does the pIC50 read?
**A.** 7.54

**Q.** How did the pIC50 turn out when `CCOC(=O)C1CCC(N2CC(NC(=O)CNc3nn(C)c4ccc(C(O)C(F)(F)F)cc34)C2)CC1` (stereo not shown) [Example 60, 4-(3-{2-[1-Methyl-5-(2,2,2-trifluoro-1-hydroxy-ethyl)-1H-indazol-3-ylamino]-acetylamino}-azetidin-1-yl)-cyclohexanecarboxylic acid ethyl ester] was run?
**A.** 5.68
